Experiments:
[1] = Evaluation of retentivity of compound in blood (fluorescent intensity of blood); assay type: in vivo, nude mouse
Protocol: In order to examine the retentivity of the compound in blood, various compounds were administered to veins of nude mouse tails and the amounts of compounds remaining in blood were evaluated. […] The method for producing the compound was as described in Example 1. In Table 4, k represents 1,000. For example, 5 k represents 5,000.
The retentivity of the compound in blood was evaluated as described below. Blood samples were taken from a mouse 1 hour, 3 hours, 1 day, 2 days, and 1 week after administration, and the fluorescent intensity of the blood was measured using IVIS (registered trademark) Imaging System 200 Series (produced by Caliper Life Science Inc.). The amount of administration to the mouse was 0.5 mg/kg in terms of the amount of dye. […] It is considered that access of serum protein to the near-infrared organic dye was limited by bonding the branched chain PEG to the near-infrared organic dye, accumulation into a liver was reduced and, as a result, the retentivity in blood was acquired.

[2] = test system: colon 26 cell line; assay: Tumor accumulation evaluated by photoacoustic imaging; assay type: in vivo; details: colon 26 tumor-bearing mouse, tail vein, 32 nmol as dye, 797 nm
Protocol: Photoacoustic signals were measured before a prepared compound was administered and at any given timing after administration by using the commercially available photoacoustic imaging apparatus (Nexus128, produced by Endra Inc.), so that three-dimensional reconfiguration data were obtained respectively. The photoacoustic intensity in a region of interest (ROI) was measured on the basis of the resulting three-dimensional reconfiguration data.
In the example according to the present invention, the amount of migration of the compound to a tumor mass was evaluated using a tumor-bearing model mouse. […] The fluorescent imaging was performed using IVIS (registered trademark) Imaging System and fluorescent intensity of a region of interest (ROI) of the tumor portion was measured.
In order to evaluate the tumor accumulation of the compound, a contrast medium was administered to a tail vein of a tumor-bearing mouse which had been transplanted a colon 26 cell line. […] Then, tumor accumulation 1 day after administration of the contrast medium into the tumor-bearing mouse was evaluated by photoacoustic imaging and fluorescence. […] Subsequently, the relative photoacoustic signal intensity 1 day after administration relative to before administration was calculated. The amount of accumulation into a tumor of the mouse was evaluated using fluorescence, as described below. […]

[3] = Tumor accumulation evaluated by fluorescence of tumor homogenate; assay type: in vivo; details: intravenous, 32 nmol in terms of the amount of dye, colon 26 tumor-bearing mouse, tail vein, 32 nmol as dye, 24 hours after administration
Protocol: The tumor accumulation was evaluated by an intraveneous injection of 100 microliters (13 nmol in terms of ICG) of various ICG-PEG aqueous solution into tumor-bearing mouse models, in which various cells were subcutaneously transplanted into BALB/c Slc-nu/nu mice. The mice were euthanized with a carbon dioxide gas 24 hours after the administration. Subsequently, each cancer tissue was enucleated. The cancer tissue was transferred to a plastic tube, 1% Triton-X100 aqueous solution 1.25 times the cancer tissue in weight was added, and a homogenate was produced using a plastic pestle. […] The amount of dye in the cancer tissue (% ID/g) was quantified by using IVIS (registered trademark) Imaging System 200 Series (produced by Caliper Life Science Inc.) and measuring the fluorescent intensity of the solution of the dye extracted from the tumor tissue and the standard solution for calibration in the state of the plastic tube.
In order to evaluate the tumor accumulation of the compound, a contrast medium was administered to a tail vein of a tumor-bearing mouse which had been transplanted a colon 26 cell line. […] Then, tumor accumulation 1 day after administration of the contrast medium into the tumor-bearing mouse was evaluated by photoacoustic imaging and fluorescence. […] The amount of accumulation into a tumor of the mouse was evaluated using fluorescence, as described below. […]

[4] = rat, ICG administered to the blood alone; cited from earlier work
[5] = in vivo; cited from earlier work
[6] = nude mouse, tail vein, 0.5 mg/kg as dye, ICG 1 day after administration = 1

CC1(C)C(/C=C/C=C/C=C/C=C2/N(CCCCS(=O)(=O)[O-])c3ccc4ccccc4c3C2(C)C)=[N+](CCCCS(=O)(=O)[O-])c2ccc3ccccc3c21.[Na+] [ICG, Indocyanine Green]
Retentivity in blood ([1]; in words): disappeared from the blood promptly | Relative concentration in blood, 1 week after [1, 6]: 0.72 | Relative concentration in blood, 1 hour after [1, 6]: 36.7 | Relative concentration in blood, 3 hours after [1, 6]: 19 | Relative concentration in blood, 2 days after [1, 6]: 0.89 | Relative concentration in blood, 1 day after ([1]; nude mouse, tail vein, 0.5 mg/kg as dye, ICG 1 day after administration = 1 (Table 6)): 1 | Relative concentration in blood (1 day after administration) ([1]; nude mouse, tail vein, 0.5 mg/kg as dye, concentration of ICG in blood 1 day after administration = 1 (Table 5)): 1 | Relative photoacoustic intensity (1 day after administration) [2]: 1 | tissue uptake at 24 h [3]: 0.1 %ID/g | Time after administration until photoacoustic signal intensity is reduced to the level of the blood [4]: several tens of minutes | Half-life in blood [5]: about several minutes

— patent US9517278B2, “Compound and photoacoustic imaging contrast medium containing the compound” (CANON KABUSHIKI KAISHA, priority 2012, dated 2016)
